Data published in ChEMBL document CHEMBL4602633, “Discovery of coumarin-based selective aldehyde dehydrogenase 1A1 inhibitors with glucose metabolism improving activity” (Eur J Med Chem, 2020).
The source made the active and inactive calls. The rule behind the calls is not given here.

Tests used:
[1] = Cmax in […] plasma at 25 mg/kg, po measured over 12 hrs by LC-MS/MS analysis; type: ADME, organism-based; design: dose 25 mg/kg, route oral
[2] = AUC in […] plasma at 25 mg/kg, po measured over 12 hrs by LC-MS/MS analysis; type: ADME, organism-based; design: time < 12 hr, dose 25 mg/kg, route oral
[3] = Clearance in […] plasma at 2.5 mg/kg, iv measured over 6 hrs by LC-MS/MS analysis; type: ADME, organism-based
[4] = Half life in […] plasma at 2.5 mg/kg, iv measured over 6 hrs by LC-MS/MS analysis; type: ADME, organism-based
[5] = molecular target: T1, Aldehyde dehydrogenase 1A1 (Homo sapiens, UniProt P00352); assay: Inhibition of N-terminal Met/His6-tagged recombinant human ALDH1A1 (Ser2-Ser501 residues) expressed in Escherichia coli cells using propionaldehyde as substrate preincubated for 15 mins followed by substrate addition by spectrophotometric method
T1 sequence (P00352 whole entry): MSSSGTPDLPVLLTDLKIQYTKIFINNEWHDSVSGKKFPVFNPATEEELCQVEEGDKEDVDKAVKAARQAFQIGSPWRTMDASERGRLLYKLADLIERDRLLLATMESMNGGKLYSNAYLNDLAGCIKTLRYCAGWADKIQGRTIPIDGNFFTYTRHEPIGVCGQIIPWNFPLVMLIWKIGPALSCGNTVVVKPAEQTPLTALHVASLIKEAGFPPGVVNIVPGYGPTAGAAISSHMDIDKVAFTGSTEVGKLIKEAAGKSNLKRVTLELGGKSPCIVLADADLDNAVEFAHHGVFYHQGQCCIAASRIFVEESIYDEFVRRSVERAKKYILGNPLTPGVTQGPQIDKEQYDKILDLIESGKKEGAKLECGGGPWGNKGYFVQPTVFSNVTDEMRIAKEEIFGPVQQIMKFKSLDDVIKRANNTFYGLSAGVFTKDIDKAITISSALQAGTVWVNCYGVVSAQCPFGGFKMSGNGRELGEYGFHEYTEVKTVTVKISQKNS

[6] = molecular target: T2, Aldehyde dehydrogenase, mitochondrial (Homo sapiens) (UniProt P05091); assay: Inhibition of recombinant human ALDH2 at 10 uM using propionaldehyde as substrate preincubated for 15 mins followed by substrate addition by spectrophotometric method relative to control
T2 sequence (whole entry): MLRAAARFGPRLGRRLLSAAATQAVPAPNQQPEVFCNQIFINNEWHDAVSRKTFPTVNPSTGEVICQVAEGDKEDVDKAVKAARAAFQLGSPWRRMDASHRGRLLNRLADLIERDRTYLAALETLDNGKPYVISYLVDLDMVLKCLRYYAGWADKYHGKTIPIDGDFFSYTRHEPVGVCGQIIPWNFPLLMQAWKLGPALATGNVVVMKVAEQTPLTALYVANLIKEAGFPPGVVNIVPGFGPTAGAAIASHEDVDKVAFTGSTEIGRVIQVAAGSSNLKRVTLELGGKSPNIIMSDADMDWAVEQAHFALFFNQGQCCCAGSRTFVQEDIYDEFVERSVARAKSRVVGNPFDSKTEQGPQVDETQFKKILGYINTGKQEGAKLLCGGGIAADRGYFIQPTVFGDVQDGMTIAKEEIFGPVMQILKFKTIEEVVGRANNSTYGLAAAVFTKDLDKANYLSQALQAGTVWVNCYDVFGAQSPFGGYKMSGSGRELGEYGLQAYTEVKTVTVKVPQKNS

[7] = molecular target: T3, Aldehyde dehydrogenase, dimeric NADP-preferring (Homo sapiens) (UniProt P30838); assay: Inhibition of recombinant C-terminal His6-tagged human ALDH3A1 (Met1 to His453 residues) expressed in mammalian expression system at 10 uM using benzaldehyde as substrate preincubated for 15 mins followed by substrate addition by spectrophotometric method relative to control
T3 sequence (whole entry): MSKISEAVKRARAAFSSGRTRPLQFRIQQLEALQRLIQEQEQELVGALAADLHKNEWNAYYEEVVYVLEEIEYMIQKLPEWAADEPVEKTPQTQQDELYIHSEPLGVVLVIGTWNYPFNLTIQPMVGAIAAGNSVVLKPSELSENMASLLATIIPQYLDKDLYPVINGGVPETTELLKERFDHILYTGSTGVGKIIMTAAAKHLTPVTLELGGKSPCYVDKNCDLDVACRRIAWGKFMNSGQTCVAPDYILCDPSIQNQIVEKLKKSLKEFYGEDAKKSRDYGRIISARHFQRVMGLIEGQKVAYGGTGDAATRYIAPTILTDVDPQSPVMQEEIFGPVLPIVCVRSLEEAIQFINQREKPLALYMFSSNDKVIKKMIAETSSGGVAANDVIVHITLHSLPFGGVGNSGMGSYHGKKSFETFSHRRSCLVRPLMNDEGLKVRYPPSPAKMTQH

HepG2 = assay: Inhibition of palmitic acid-induced glucose consumption impairment in human HepG2 cells at 2 to 5 uM after 24 hrs; type: functional, cell-based
[8] = molecular target: T4, Aldehyde dehydrogenase 1A1 (Homo sapiens) (UniProt P00352); assay: Inhibition of N-terminal Met/His6-tagged recombinant human ALDH1A1 (Ser2-Ser501 residues) expressed in Escherichia coli cells at 10 uM using propionaldehyde as substrate preincubated for 15 mins followed by substrate addition by spectrophotometric method relative to control
T4 sequence (whole entry): T1 sequence (P00352 whole entry)

[9] = Half life in […] plasma at 25 mg/kg, po measured over 12 hrs by LC-MS/MS analysis; type: ADME, organism-based
[10] = molecular target: T5, Retinaldehyde dehydrogenase 3 (Homo sapiens) (UniProt P47895); assay: Inhibition of recombinant N-terminal His6-tagged human ALDH1A3 (Met1 to Pro512 reisudes) expressed in Escherichia coli at 10 uM using propionaldehyde as substrate preincubated for 15 mins followed by substrate addition by spectrophotometric method relative to control
T5 sequence (whole entry): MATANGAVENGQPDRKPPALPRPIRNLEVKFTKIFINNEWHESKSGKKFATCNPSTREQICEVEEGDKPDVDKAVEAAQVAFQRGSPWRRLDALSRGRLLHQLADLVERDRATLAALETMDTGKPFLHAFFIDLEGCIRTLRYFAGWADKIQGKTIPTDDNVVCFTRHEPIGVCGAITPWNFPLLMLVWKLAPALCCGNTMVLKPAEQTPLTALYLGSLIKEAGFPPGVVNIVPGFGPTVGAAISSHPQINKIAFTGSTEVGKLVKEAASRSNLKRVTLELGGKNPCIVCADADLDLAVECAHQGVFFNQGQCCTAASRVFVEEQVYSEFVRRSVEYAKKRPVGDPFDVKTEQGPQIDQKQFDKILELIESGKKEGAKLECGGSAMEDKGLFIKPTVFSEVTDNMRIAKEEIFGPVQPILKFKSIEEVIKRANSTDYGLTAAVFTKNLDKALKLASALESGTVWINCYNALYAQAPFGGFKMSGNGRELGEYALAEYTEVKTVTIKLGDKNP

[11] = molecular target: T6, Retinal dehydrogenase 2 (Homo sapiens) (UniProt O94788); assay: Inhibition of recombinant N-terminal His6-tagged human ALDH1A2 (Met1 to Ser518 residues) expressed in Escherichia coli at 10 uM using propionaldehyde as substrate preincubated for 15 mins followed by substrate addition by spectrophotometric method relative to control
T6 sequence (whole entry): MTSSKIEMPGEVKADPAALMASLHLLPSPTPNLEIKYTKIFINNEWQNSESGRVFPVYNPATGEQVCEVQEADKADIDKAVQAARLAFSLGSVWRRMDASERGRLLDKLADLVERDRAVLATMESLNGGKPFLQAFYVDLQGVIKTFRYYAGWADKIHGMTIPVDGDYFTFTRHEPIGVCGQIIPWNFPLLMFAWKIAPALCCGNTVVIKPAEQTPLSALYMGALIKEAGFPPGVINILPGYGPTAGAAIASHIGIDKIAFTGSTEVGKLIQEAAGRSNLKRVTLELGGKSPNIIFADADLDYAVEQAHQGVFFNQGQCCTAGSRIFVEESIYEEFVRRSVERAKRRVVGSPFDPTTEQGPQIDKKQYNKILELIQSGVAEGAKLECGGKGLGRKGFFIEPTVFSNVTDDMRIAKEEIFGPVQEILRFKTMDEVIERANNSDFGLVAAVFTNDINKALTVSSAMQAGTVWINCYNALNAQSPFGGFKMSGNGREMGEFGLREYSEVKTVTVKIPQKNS

[12] = AUC in […] plasma at 2.5 mg/kg, iv measured over 6 hrs by LC-MS/MS analysis; type: ADME, organism-based; design: time < 6 hr, dose 2.5 mg/kg, route intravenous
[13] = Half life in human liver microsomes at 2 ug/ml preincubated for 5 mins followed by NADPH addition and measured up to 45 mins by LC-MS/MS analysis; type: ADME, Microsome
[14] = Volume of distribution at steady state in […] plasma at 2.5 mg/kg, iv measured over 6 hrs by LC-MS/MS analysis; type: ADME, organism-based; details: read-out: Vdss
[15] = Oral bioavailability in […] at 25 mg/kg measured over 12 hrs by LC-MS/MS analysis; type: ADME, organism-based; details: in vivo
[16] = Cmax in […] plasma at 2.5 mg/kg, iv after 5 mins by LC-MS/MS analysis; type: ADME, organism-based; design: dose 2.5 mg/kg, route intravenous

Cmax [1]: 3320 ng/mL | AUC at 12 h [2]: 6470 ng·h/mL | clearance [3]: 26.8 mL/min/kg | half-life [4]: 45.4 min | IC50 [5]: 3.87 µM | inhibition [6]: 2.24% | inhibition [7]: 1.89% | inhibition [8]: 61.8% | half-life [9]: 108 min | inhibition [10]: 2.59% | inhibition [11]: 2.13% | AUC at 6 h [12]: 1540 ng·h/mL | half-life at 2 ug/ml [13]: 38.5 min | Vd [14]: 0.843 L/kg | bioavailability [15]: 41.9% | Cmax [16]: 2840 ng/mL
SMILES: CCN(C(=O)CCN1CCN(C(=O)c2ccco2)CC1)c1ccc2c(C)cc(=O)oc2c1
inhibition (HepG2): Active
